From patent US7939057B2, “Methods and compositions for modulating the mobilization of stem cells” (Mount Sinai School of Medicine, priority 2006, dated 2011)
Counter-ions that a name gives are not always drawn. Marks after values point to notes of the source that are not given here.

Experiments:
SDF-1 = SDF-1 secretion by stromal cell line MS-5 (ELISA); type: cell-based; conditions: 72 h exposure of MS-5 cells
Excerpt: Studies were also done to determine the effect of norepinephrine or a beta receptor agonist on SDF-1 secretion by a stromal cell line and to determine if there is a correlation with stem cell egress. […] This corresponds with an increase in the stem cell egress.

[1] = tested on: hematopoietic stem and progenitor cells (HSPCs); test: G-CSF-induced mobilization of hematopoietic progenitors (circulating CFU-C); type: in vivo, mice; conditions: for G-CSF-induced mobilization with clenbuterol: clenbuterol 2 mg/kg/day i.p. two days before and during G-CSF
Method: (§1) To induce HSPC mobilization, mice were injected with recombinant human G-CSF (Filgrastim, Amgen, Thousand Oaks, Calif., 250 μg/kg/day, every 12 hours, 8 divided doses, s.c.) in PBS supplemented with 0.1% endotoxin free bovine serum albumin (BSA) or fucoidan (Sigma; 2 doses of 100 mg/kg with 2 h interval, i.p.) in PBS. Blood was harvested 3 h (G-CSF) or 1 h (fucoidan). CFU-C assays were carried out as previously described (Katayama, Y., and Frenette, P. S. (2003). Galactocerebrosides are required postnatally for stromal-dependent bone marrow lymphopoiesis. Immunity 18, 789-800).
A chronic guide cannula (1.0 mm) was implanted stereotaxically into the lateral ventricle (coordinates AP, −0.7 mm; DV, −2.4 mm; ML, 1.5 mm, from bregma). One week after implantation, mice received a reduced dose of G-CSF (25 μg/kg daily for 4 doses) either by ICV infusion (rate: 0.4 μL/min) or by s.c. injection.
(§2) Newborn C57BL/6 mice were injected s.c. with 6OHDA (100 mg/kg, Sigma) or vehicle (saline) on postnatal days 2, 4, 6, 8 and 9. HSPC mobilization was induced at 3 weeks of age. For SNS disruption in adult C57BL6 mice, 4 week-old animals were injected i.p. with 2 doses of 6OHDA or vehicle, 100 mg/kg on day 0, 250 mg/kg on day 2, and G-CSF treatment was begun on day 5. For β-adrenergic receptor blockade, 4 week-old C57BL/6 mice were treated with propranolol (0.5 g/L in drinking water, Sigma) or control pure water for 3 weeks prior to mobilization. For rescue experiments, clenbuterol (2 mg/kg/day, i.p.) was injected starting day −2 prior to and continued during G-CSF treatment.

[2] = tested on: catecholaminergic neurons; test: Tissue catecholamines after 6-hydroxydopamine treatment (HPLC, heart); type: in vivo, C57BL/6 mice; conditions: 5 week-old C57BL6 mice treated perinatally with 6OHDA, n=3, p<0.05 vs PBS
Method: as §2
Hearts from 5 week-old C57BL6 mice treated perinatally with 6-hydroxydopamine (6OHDA) or PBS control were homogenized in 0.1 M trichloroacetic acid containing 10 mM sodium acetate, 0.1 mM EDTA, 1 μM isoproterenol (as internal standard), and 10.5% methanol (pH 3.8). Catecholamine levels were determined by HPLC at the Neurochemistry Core Lab, Vanderbilt University's Center for Molecular Neuroscience research (Nashville, Tenn.). * p<0.05 compared with PBS control. n=3 mice.

hematopoietic progenitor = test: AMD3100-induced hematopoietic progenitor mobilization (stem cell egress); type: in vivo, C57BL/6 mice
Method: Studies were done to determine the effect of destruction of dopaminergic and noradrenergic neurons on stem cell egress. In these studies, newborn C57BL/6 mice were injected subcutaneously with 6OHDA (100 mg/kg, Sigma) or vehicle (normal saline) on postnatal days 2, 4, 6, 8, and 9. Hematopoietic progenitor mobilization was induced at 34 weeks of age, by subcutaneous injection of AMD3100 (5 mg/kg) in normal saline. Peripheral blood was harvested retroorbitally one hour post injection. P-value was calculated using two-tailed Student's t-test assuming unequal variances.
Studies were done to determine the effect of the beta agonist clenbuterol on stem cell egress. In this study, all drugs were dissolved in normal saline (0.9% w/v NaCl), with a delivery volume of 10 μL/g body mass. 10 μl/g saline i.p. or 2 mg/kg clenbuterol i.p. were given to adult (8-10 week old) C57BL6 mice 1 hour prior to hematopoietic progenitor mobilization induced by […] s.c. Peripheral blood was harvested retroorbitally one hour post AMD3100 injection. P-value was calculated using two-tailed Student's t-test assuming unequal variances.

[3] = tested on: hematopoietic stem and progenitor cells (HSPCs); test: Fucoidan-induced mobilization of hematopoietic progenitors (circulating CFU-C); type: in vivo; conditions: Cgt−/− mice; 2 doses of 100 mg/kg i.p.
Method: as §1

norepinephrine = test: Norepinephrine turnover in hearts after AMPT; type: in vivo, mice; conditions: AMPT 300 mg/kg, mean±sem, n=4-5
Method: FIG. 11. Norepinephine turnover in tissues following G-CSF administration in Cgt littermates. • To assess turnover rate, Cgt were administered the catecholamine synthesis inhibitor α-methyl-p-tyrosine (AMPT, 300 mg/kg, Sigma) or were left untreated. Animals were sacrificed 4 h after AMPT injection. Hearts were rapidly removed, weighed, frozen in liquid nitrogen and stored at −80° C. for norepinephrine measurements. NE levels were determined by HPLC at the Neurochemistry Core Lab, Vanderbilt University's Center for Molecular Neuroscience Research (Nashville, Tenn.). Under steady-state conditions, the decline of norepinephrine (NE) reflects the synthesis rate and the sympathetic tone. n=4-5 mice per group; * p<0.05.
Decline in tissue levels of norepinephrine obeys first order kinetics (Brodie, B. B., Costa, E., Dlabac, A., Neff, N. H., and Smookler, H. H. (1966). Application of steady state kinetics to the estimation of synthesis rate and turnover time of tissue catecholamines. J Pharmacol Exp Ther 154, 493-498): […]

circulating tumor cells = conditions: AMD3100 5 mg/Kg, blood 1 h later; planned experiment
Excerpt: Luciferase expression will allow us to monitor distant metastases whereas GFP expression will permit to quantify the number of circulating tumor cells under baseline conditions and following treatment with stem cell “mobilizers”. Firstly, we will evaluate the effect of CXCR4 inhibition, using the specific antagonist AMD3100 on circulating tumor cells. Blood from NOD/SCID mice bearing tumors (day 35 for PC3lucGFP, day 15 for PC3MlucGFP) will be harvested at baseline to evaluate steady-state levels of circulating tumor cells. Mice will then be injected with AMD3100 at a dose of 5 mg/Kg and blood will be harvested 1 h later to evaluate the number of circulating tumor cells. […] To quantify the absolute counts of tumor cells, we will determine the number of circulating nucleated cells using an automatic cell counter (available in the PI's laboratory), and the proportion of GFP+ cells will be evaluated by flow cytometry in which a large sampling (>500,000 events) will be acquired owing to the rarity of circulating tumor cells.

Compound: CC(C)NCC(O)c1ccc(O)c(O)c1 (stereo not drawn) [Isoproterenol]
- SDF-1 secretion (SDF-1): decreased in a dose-dependent manner

Compound: NCCc1cc(O)c(O)cc1O [6OHDA, 6-hydroxydopamine]
- G-CSF-elicited mobilization ([1]; 6OHDA-treated adult C57BL/6 mice): significantly reduced
- number of HSPCs mobilized by G-CSF ([1]; perinatally 6OHDA-lesioned mice vs vehicle littermates): dramatically reduced
- baseline CFU-C counts per bone ([1]; perinatally 6OHDA-treated mice, steady-state BM): did not alter
- Dopamine [2]: 10 ± 10* pmol/mg tissue
- Epinephrine [2]: 41 ± 20* pmol/mg tissue
- Norepinephrine [2]: 49 ± 10* pmol/mg tissue
- stem cell egress induced by AMD3100 (hematopoietic progenitor; C57BL/6 mice given 6OHDA 100 mg/kg s.c. postnatal days 2, 4, 6, 8, 9, AMD3100 5 mg/kg s.c. at 34 weeks of age, blood one hour post injection): decreased in a dose dependent manner

Compound: CC(C)NCC(O)COc1cccc2ccccc12 (stereo not drawn) [propranolol, 1-[(1-Methylethyl)amino]-3-(1-naphthalenyloxy)-2-propanol]
- reduction of the number of HSPCs elicited by G-CSF ([1]; C57BL6 mice treated for three weeks with propranolol (0.5 g/L in drinking water)): > 20%

Compound: NC[C@H](O)c1ccc(O)c(O)c1 [norepinephrine]
- SDF-1 secretion (SDF-1): decreased in a dose-dependent manner

Compound: fucoidan
- CFU-C mobilization by fucoidan [3]: not mobilized

Compound: CC(N)(Cc1ccc(O)cc1)C(=O)O (stereo not drawn) [AMPT, α-methyl-p-tyrosine]
- Level after AMPT inhibition, 4 h (norepinephrine, heart) (norepinephrine; Cgt+/+, Cgt+/− mice): 198 ± 38 pg/mg wet weight
- Level after AMPT inhibition, 4 h (norepinephrine, heart) (norepinephrine; Cgt−/− mice): 335 ± 32 pg/mg wet weight

Compound: CC(C)(C)NCC(O)c1cc(Cl)c(N)c(Cl)c1 (stereo not drawn) [clenbuterol]
- G-CSF-induced mobilization with clenbuterol ([1]; Dbh+/− controls): further enhanced mobilization
- G-CSF-induced mobilization with clenbuterol ([1]; Dbh−/− mice): rescued in part the mobilization defect
- mobilization by clenbuterol by itself ([1]; same dose schedule, no G-CSF, data not shown): did not trigger mobilization
- stem cell egress induced by AMD3100 with clenbuterol (hematopoietic progenitor; adult C57BL6 mice, clenbuterol 2 mg/kg i.p. 1 hour prior to AMD3100 s.c., blood one hour post AMD3100): boost stem cell egress in a dose dependent manner

Compound: c1cc(CN2CCCNCCNCCCNCC2)ccc1CN1CCCNCCNCCCNCC1 [AMD3100, 1,1′-[1,4-phenylene-bis(methylene)]-bis(1,4,8,11-tetra-azacyclotetradecane) octahydrochloride dehydrate]
- number of circulating tumor cells (circulating tumor cells): will increase the number of circulating tumor cells
